# Reference: article PMC5555576, “Selective small-chemical inhibitors of protein arginine methyltransferase 5 with anti-lung cancer activity” (PLoS ONE, 2017)
# Legend:
# PRMT5 F225M = molecular target: T1, PRMT5 F225M (Homo sapiens, UniProt O14744, F327M); test: Radioactive methyltransferase assay, mutant PRMT5; format: biochemical; details: F225M mutant PRMT5, SmD3 substrate, Fig 4D
# T1 construct: His6; made in house; host or cells: bacteria (E. coli BL21(ED3) for the wild type)
# Procedure: Methylation reactions were performed as previously described with a few modifications. Reaction mixtures (40 μl) containing 1.2 μg of PRMT5, 98 ng of PRMT1 or 98 ng of PRMT3; 2 μg of SmD3 or histones; 1 μCi of S-[methyl-^3H]adenosylmethionine (H^3-AdoMet; PerkinElmer); and 5 μM AdoMet were incubated in 50 mM Tris-HCl (pH 7.5)–1 mM EGTA–1 mM EDTA at 30°C for 2 h. Reaction mixtures (20 μl) were boiled in 5 μl of 5x SDS sample buffer and separated on a 15% polyacrylamide gel. Gels were fixed for 30 min in 40% methanol–10% acetic acid, incubated in 20 ml of Amplify (Amersham Life Science) for 10 min, dried and exposed to X-ray film at -80°C. IC50 was calculated by linear regression analysis of percent inhibition. The other half (20 μl) of each reaction mixture was spread onto DE81 chromatography paper discs (Whatman). The paper discs were washed 4 times with 50 mM NaHCO3 and dried. The amounts of methylated products were quantified by liquid scintillation.
# The inhibitory activity of the compounds may stem from this interaction. To test this possibility, we conducted site-directed mutagenesis to mutate Phe225 in human PRMT5 (corresponding to Phe379 in the C. elegans PRMT5) to Met. The mutated PRMT5 was expressed in bacteria and purified by Ni-nitrilotriacetic acid (Ni-NTA) affinity chromatography (Fig 4A). The activity of the mutant PRMT5 was examined by the radioactive methyltransferase assay. […] The IC50 values for the mutant PRMT5 increased from 4.3 to 183 folds higher than those for the wild type PRMT5 (Fig 4D). […] The results also can help explain the specificity of the compounds to PRMT5. However, the contribution of this interaction to inhibition varies among the compounds. For example, compound C2 interacts with three amino acid residues (Lys451, Glu450, and Phe379) (Fig 3A) with the mutation of Phe to Met resulting in a 50-times higher IC50 (Fig 4C and 4D).
# Fig 4 The conserved phenylalanine residue in PRMT5 is critical for inhibition by the five compounds. A, DS-PAGE of recombinant wild type (WT) and F225M mutant (MT) PRMT5. The gel was stained with Coomassie Brilliant Blue R250. A band corresponding to an unknown bacterial protein is indicated (star). B, The F225M mutation increased the methytransferase activity of PRMT5. In vitro methylation reactions were performed with recombinant wild type (lanes 2–4) or mutant (lanes 5–7) PRMT5 (1.2, 2.4 or 4.8 μg) and SmD3 (2 μg) as the substrate. C, The F225M mutation in PRMT5 decreased inhibition of arginine methylation by the compounds. The reaction mixture contained SmD3 (2 μg); wild type or mutant PRMT5 (1.2 μg); and 1, 10 or 100 μM compounds as indicated. D, The F225M mutation in PRMT5 […] of the compounds, as determined by quantitation and analysis of methylation assay results. TEXT PRINTED IN THE PICTURE: (D) C2: IC50 (μM) PRMT5: 0.1; IC50 (μM) PRMT5 F225M: 5.0 | (D) C5: IC50 (μM) PRMT5: 0.8; IC50 (μM) PRMT5 F225M: 3.5 | (D) C6: IC50 (μM) PRMT5: 0.5; IC50 (μM) PRMT5 F225M: 7.0 | (D) C9: IC50 (μM) PRMT5: 6.0; IC50 (μM) PRMT5 F225M: 45.0 | (D) C11: IC50 (μM) PRMT5: 0.3; IC50 (μM) PRMT5 F225M: 55.0
# A549 cells [1] = test: BrdU incorporation assay; format: cell-based; details: 20 μM, 2 days
# Procedure: A549 cells were infected with the lentivirus expressing NT or PRMT5 shRNA. A549 cells were grown in the presence of DMSO or compound C5, C9 or C11 (20 μM) for 2 days. A, Bromodeoxyuridine (BrdU) (BD Biosciences) incorporation assay. Cells were plated on a Chamber slide (BD falcon) and cultured in the presence of 10 μM BrdU for 4 h. The BrdU-positive cells (brown) were detected by immunostaining with the monoclonal anti-BrdU antibody (BD Biosciences) and observed under a microscope. B, Percentage of BrdU-positive cells in control, PRMT5-silencing or compound treated cells. The results represent the means of three independent experiments ± the standard deviation. ***, P<0.001. (TIF) Click here for additional data file.
# A549 cells [2] = test: Cellular permeability and stability by HPLC of cell extracts; format: in vitro ADME; details: for decrease of concentration inside the cells: 20 μM for 2 h, within 10 h after removal; for concentration inside cells compared with the medium: 2 h; for cell permeability: 2 hr in medium with compound
# Procedure: Waters 2695 HPLC System and a C18 column (Symmetry, 3.6 x 75 mm) were used. The column was equilibrated with 10% acetonitrile and eluated with a linear gradient from 10% acetonitrile to 100% acetonitrile in 60 min. Compounds were dissolved in 10% acetonitrile and the purchased compounds (ChemBridge) were used as the standards.
# We then determined whether the identified compounds are cell-permeable. Lung cancer A549 cells were cultured in medium containing various concentrations of the respective compound for 2 hr. Cells were harvested and washed with PBS. The compounds were extracted with ethyl acetate from cells and analyzed by HPLC with a C18 column using the purchased compound as the standard. Compounds C2, C5, C9 and C11 are cell-permeable (Fig 6A), which is consistent with their tPSAs <140 angstroms square (Table 1). […] We even noticed that the compound C5 crystalized inside the cells.
# A, The cellular permeability of identified compounds. Lung cancer A549 cells were cultured in the presence of various concentrations of compounds for 2h and the compound concentrations in the cell were determined by HPLC chromatography with a C18 column. B, The cellular stability of identified compounds. Lung cancer A549 cells were cultured in the presence of compounds (20 μM) for 2 h and then the medium was removed. Cells were washed with the medium and cultured for additional 5 or 10 h after the compounds were removed. The compound concentrations in the cell were determined by HPLC chromatography with a C18 column. […] A549 cells were grown in the presence of DMSO or compound C5, C9 or C11 (20 μM). Histones were purified and analyzed by SDS-PAGE stained with Commassie blue (lanes 1–4, bottom) or by Western blot with anti-symmetric dimethyl arginine antibody (SYM10) (lanes 1–4, top). B-Raf was immunoprecipitated with anti-B-Raf antibody from whole cell lysates and submitted for Western blot analysis with anti-B-Raf (lanes 5 and 6, bottom) or anti-symmetric dimethyl arginine (lanes 5 and 6, top) antibody.
# T1 sequence (O14744 whole entry F327M): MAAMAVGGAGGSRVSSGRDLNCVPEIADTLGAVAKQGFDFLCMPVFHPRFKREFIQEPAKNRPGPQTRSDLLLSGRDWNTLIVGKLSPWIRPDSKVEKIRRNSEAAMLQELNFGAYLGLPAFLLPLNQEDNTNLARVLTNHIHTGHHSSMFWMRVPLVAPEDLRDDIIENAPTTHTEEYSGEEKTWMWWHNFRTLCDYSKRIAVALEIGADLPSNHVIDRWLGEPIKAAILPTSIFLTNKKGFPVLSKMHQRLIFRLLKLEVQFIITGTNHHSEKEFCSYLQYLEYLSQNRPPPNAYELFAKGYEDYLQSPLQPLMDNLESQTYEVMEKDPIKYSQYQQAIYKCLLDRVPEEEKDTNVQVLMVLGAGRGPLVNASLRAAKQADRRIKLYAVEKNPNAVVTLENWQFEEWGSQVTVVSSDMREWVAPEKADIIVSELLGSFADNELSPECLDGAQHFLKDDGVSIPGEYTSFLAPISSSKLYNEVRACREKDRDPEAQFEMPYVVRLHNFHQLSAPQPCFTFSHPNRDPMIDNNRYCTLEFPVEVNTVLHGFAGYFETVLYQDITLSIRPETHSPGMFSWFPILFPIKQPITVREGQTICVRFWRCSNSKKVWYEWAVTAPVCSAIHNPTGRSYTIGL
SMILES,IC50 (PRMT5 F225M) [µM],cellular proliferation (BrdU) (A549 cells [1]),accumulation inside cells (A549 cells [2]) [fold],decrease of concentration inside the cells (A549 cells [2]),concentration inside cells compared with the medium (A549 cells [2]),cell permeability (A549 cells [2])
COc1ccc(Nc2ncnc3c2cnn3Cc2ccc(C)cc2)cc1 [Compound C9],45,inhibited proliferation of lung cancer cells,5,about 2 folds,higher than those in the medium,cell-permeable
CCn1c(=O)[nH]c2cc(C(=O)Nc3ccc(OC)cc3)ccc2c1=O [Compound C5],3.5,inhibited proliferation of lung cancer cells,,about 2 folds,higher than those in the medium,cell-permeable
Cn1cc(C(c2ccc(O)c(O)c2O)c2cn(C)c3ccccc23)c2ccccc21 [Compound C11],55,inhibited proliferation of lung cancer cells,,about 2 folds,higher than those in the medium,cell-permeable
